Data reported in publication PMC4290623, “Homopharma: A new concept for exploring the molecular binding mechanisms and drug repurposing” (BMC Genomics, 2014).

Legend:
Assay in all cases: In vitro enzymatic profiling, HotSpot assay platform
Format in all cases: biochemical
[1] = biological target: T1, FGFR1 (Homo sapiens, UniProt P11362); conditions: inhibitor 10 μM, ATP 10 μM; for IC50: duplicate, read-out: IC50 (bioactivity in the kinome picture)
T1 construct: purchased Reaction Biology Corporation
Protocol: (§1) In vitro enzymatic profiling of the 32 member kinase panel was performed at Reaction Biology Corporation (http://www.reactionbiology.com, Malvern, PA) using the "HotSpot" assay platform. Each kinase activity assay was performed in duplicate with inhibitor concentration of 10 μM and an ATP concentration of 10 μM.

[2] = biological target: T2, IGF1R (Homo sapiens, UniProt P08069); conditions: inhibitor 10 μM, ATP 10 μM; for IC50: duplicate, read-out: IC50 (bioactivity in the kinome picture)
T2 construct: purchased Reaction Biology Corporation
Protocol: as §1

[3] = biological target: T3, INSR (Homo sapiens, UniProt P06213); conditions: inhibitor 10 μM, ATP 10 μM, duplicate, read-out: IC50 (bioactivity in the kinome picture)
T3 construct: purchased Reaction Biology Corporation
Protocol: as §1

[4] = biological target: T4, AKT2 (Homo sapiens, UniProt P31751); conditions: inhibitor 10 μM, ATP 10 μM
T4 construct: purchased Reaction Biology Corporation
Protocol: as §1

[5] = biological target: T5, EGFR (Homo sapiens, UniProt P00533); conditions: inhibitor 10 μM, ATP 10 μM
T5 construct: purchased Reaction Biology Corporation
Protocol: as §1

[6] = biological target: T6, KIT (Homo sapiens, UniProt P10721); conditions: inhibitor 10 μM, ATP 10 μM
T6 construct: purchased Reaction Biology Corporation
Protocol: as §1

[7] = biological target: T7, LCK (Homo sapiens, UniProt P06239); conditions: inhibitor 10 μM, ATP 10 μM
T7 construct: purchased Reaction Biology Corporation
Protocol: as §1

[8] = biological target: T8, MAPK3 (Homo sapiens, UniProt P27361); conditions: inhibitor 10 μM, ATP 10 μM
T8 construct: purchased Reaction Biology Corporation
Protocol: as §1

[9] = biological target: T9, SRC (Homo sapiens, UniProt P12931); conditions: inhibitor 10 μM, ATP 10 μM
T9 construct: purchased Reaction Biology Corporation
Protocol: as §1

[10] = biological target: T10, CSNK2A1 (Homo sapiens, UniProt P68400); conditions: inhibitor 10 μM, ATP 10 μM, duplicate, read-out: IC50 (bioactivity in the kinome picture)
T10 construct: purchased Reaction Biology Corporation
Protocol: In vitro enzymatic profiling of the 32 member kinase panel was performed at Reaction Biology Corporation (http://www.reactionbiology.com, Malvern, PA) using the "HotSpot" assay platform. […]

[11] = biological target: T11, CHEK2 (Homo sapiens, UniProt O96017); conditions: inhibitor 10 μM, ATP 10 μM
T11 construct: purchased Reaction Biology Corporation
Protocol: as §1

[12] = biological target: T12, LIMK1 (Homo sapiens, UniProt P53667); conditions: inhibitor 10 μM, ATP 10 μM
T12 construct: purchased Reaction Biology Corporation
Protocol: as §1

[13] = biological target: T13, CAMK2G (Homo sapiens, UniProt Q13555); conditions: inhibitor 10 μM, ATP 10 μM, duplicate, read-out: IC50 (bioactivity in the kinome picture)
T13 construct: purchased Reaction Biology Corporation
Protocol: In vitro enzymatic profiling of the 32 member kinase panel was performed at Reaction Biology Corporation (http://www.reactionbiology.com, Malvern, PA) using the "HotSpot" assay platform. Each kinase activity assay was performed in duplicate with inhibitor concentration of 10 μM and an ATP concentration of 10 μM. […] Another compound JMY84 could also be used as drug candidates of colorectal cancer due to its effects on CHEK2, LIMK1, and FGFR1 (Figures 5D and 5E).

T2 sequence (P08069 31-1367): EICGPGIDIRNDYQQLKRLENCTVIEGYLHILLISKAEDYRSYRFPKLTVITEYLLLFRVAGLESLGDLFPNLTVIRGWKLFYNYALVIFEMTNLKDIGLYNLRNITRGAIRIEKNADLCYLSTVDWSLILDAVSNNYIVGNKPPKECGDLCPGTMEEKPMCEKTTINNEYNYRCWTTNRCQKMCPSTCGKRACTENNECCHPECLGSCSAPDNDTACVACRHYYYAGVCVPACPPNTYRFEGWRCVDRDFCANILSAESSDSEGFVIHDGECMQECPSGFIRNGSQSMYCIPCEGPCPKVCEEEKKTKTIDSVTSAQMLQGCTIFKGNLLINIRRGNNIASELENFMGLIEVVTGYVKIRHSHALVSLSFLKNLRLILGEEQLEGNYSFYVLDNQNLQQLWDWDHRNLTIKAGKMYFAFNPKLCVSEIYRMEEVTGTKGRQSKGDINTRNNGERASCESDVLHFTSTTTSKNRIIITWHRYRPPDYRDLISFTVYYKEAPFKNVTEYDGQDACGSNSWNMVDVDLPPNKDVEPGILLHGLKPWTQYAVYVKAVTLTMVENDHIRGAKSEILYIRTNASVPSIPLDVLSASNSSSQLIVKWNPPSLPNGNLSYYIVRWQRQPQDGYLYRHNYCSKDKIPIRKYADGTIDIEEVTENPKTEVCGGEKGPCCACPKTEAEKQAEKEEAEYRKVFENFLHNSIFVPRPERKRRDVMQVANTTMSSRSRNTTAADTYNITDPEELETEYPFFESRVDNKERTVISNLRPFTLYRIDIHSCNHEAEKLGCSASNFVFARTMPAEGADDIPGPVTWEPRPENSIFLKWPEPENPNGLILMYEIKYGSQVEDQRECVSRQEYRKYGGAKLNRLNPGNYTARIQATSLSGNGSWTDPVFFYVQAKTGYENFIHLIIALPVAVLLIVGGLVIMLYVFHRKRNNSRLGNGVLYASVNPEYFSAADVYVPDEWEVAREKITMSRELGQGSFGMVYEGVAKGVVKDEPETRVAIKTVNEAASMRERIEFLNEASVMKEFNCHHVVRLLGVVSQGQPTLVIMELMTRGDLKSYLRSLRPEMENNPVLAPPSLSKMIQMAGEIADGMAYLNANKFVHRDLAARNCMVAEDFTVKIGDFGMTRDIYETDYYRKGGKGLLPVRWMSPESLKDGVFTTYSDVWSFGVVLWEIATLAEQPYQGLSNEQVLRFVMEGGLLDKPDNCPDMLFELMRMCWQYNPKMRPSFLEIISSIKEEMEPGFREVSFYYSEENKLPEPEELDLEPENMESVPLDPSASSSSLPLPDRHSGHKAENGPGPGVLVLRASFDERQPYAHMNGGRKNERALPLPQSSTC
T1 sequence (P11362 22-822): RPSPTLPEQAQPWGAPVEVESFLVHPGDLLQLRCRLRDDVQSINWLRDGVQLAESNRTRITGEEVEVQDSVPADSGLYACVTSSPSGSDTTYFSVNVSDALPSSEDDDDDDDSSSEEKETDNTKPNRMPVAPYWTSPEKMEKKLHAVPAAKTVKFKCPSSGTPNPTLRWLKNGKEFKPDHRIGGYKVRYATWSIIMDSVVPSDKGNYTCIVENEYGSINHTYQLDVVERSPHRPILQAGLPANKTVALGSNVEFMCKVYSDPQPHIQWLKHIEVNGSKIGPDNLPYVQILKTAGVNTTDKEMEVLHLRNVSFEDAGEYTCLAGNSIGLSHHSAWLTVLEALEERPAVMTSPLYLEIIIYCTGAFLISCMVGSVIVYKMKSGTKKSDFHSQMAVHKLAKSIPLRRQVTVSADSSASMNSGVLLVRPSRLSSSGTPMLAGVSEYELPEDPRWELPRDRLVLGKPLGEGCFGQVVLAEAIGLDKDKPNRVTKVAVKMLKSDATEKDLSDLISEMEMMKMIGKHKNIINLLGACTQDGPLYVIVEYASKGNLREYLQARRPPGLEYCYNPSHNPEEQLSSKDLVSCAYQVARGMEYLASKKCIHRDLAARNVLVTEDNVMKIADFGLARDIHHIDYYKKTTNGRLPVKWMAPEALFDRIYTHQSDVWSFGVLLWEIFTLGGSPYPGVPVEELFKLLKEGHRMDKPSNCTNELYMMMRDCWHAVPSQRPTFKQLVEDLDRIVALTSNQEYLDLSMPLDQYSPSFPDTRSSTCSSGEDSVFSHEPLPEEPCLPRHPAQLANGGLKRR
T9 sequence (P12931 whole entry): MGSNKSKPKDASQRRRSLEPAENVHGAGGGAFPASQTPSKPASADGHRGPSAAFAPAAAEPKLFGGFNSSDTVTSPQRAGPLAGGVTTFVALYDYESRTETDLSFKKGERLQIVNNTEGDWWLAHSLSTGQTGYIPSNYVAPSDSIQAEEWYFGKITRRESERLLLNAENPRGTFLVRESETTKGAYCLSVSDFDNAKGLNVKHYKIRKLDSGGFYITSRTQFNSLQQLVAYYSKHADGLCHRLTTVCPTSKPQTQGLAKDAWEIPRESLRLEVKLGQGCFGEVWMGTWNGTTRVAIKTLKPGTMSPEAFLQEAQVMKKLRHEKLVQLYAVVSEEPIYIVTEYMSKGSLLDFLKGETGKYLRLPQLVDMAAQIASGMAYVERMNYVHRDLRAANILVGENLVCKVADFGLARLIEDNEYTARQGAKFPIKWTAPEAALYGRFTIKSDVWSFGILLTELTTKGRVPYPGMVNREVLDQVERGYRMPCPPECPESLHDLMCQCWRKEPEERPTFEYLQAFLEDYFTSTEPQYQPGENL
T11 sequence (O96017 whole entry): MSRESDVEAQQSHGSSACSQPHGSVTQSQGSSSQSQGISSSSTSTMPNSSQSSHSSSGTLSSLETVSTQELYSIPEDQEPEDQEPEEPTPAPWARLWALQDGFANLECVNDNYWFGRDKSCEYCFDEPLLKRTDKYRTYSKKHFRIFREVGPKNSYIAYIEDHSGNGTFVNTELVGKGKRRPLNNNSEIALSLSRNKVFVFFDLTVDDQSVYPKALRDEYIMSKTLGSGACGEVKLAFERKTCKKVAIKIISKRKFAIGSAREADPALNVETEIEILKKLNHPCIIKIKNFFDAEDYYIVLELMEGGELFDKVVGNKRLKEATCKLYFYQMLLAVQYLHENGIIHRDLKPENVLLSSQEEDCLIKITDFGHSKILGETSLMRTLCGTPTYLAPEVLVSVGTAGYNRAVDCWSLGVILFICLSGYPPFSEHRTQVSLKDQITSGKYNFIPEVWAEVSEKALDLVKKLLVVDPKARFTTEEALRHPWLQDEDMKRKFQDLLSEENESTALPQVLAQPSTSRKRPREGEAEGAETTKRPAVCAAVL
T12 sequence (P53667 whole entry): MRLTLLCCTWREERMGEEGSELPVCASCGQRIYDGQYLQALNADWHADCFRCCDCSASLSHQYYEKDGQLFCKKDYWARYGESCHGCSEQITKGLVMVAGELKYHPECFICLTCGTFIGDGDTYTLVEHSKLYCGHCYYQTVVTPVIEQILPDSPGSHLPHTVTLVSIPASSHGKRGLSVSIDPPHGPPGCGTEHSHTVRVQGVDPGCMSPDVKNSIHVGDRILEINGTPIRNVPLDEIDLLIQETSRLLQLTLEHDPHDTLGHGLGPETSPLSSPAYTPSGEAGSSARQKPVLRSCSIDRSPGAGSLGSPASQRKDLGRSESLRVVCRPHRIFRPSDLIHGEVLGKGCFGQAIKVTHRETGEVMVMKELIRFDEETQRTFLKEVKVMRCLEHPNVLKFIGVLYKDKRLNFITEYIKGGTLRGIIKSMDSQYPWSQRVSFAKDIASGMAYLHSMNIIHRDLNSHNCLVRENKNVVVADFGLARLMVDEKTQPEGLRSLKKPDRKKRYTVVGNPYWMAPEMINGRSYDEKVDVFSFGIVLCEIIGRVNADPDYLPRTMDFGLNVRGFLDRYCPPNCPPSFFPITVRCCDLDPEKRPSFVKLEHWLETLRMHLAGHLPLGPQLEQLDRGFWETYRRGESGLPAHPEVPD
T13 sequence (Q13555 whole entry): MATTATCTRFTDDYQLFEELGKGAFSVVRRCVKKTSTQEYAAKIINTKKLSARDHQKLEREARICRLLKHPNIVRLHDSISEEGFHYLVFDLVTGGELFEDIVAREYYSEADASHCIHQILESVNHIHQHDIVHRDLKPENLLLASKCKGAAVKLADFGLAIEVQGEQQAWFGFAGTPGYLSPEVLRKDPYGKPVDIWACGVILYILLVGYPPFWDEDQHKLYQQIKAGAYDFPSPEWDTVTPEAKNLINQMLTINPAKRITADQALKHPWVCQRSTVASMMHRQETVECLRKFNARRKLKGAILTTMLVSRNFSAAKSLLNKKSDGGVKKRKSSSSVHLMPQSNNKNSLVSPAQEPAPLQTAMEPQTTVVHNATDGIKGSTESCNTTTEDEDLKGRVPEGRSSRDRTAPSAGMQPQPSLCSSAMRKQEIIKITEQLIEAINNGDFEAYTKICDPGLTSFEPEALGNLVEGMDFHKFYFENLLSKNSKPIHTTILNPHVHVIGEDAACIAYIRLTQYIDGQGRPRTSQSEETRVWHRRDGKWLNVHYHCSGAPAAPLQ
T7 sequence (P06239 whole entry): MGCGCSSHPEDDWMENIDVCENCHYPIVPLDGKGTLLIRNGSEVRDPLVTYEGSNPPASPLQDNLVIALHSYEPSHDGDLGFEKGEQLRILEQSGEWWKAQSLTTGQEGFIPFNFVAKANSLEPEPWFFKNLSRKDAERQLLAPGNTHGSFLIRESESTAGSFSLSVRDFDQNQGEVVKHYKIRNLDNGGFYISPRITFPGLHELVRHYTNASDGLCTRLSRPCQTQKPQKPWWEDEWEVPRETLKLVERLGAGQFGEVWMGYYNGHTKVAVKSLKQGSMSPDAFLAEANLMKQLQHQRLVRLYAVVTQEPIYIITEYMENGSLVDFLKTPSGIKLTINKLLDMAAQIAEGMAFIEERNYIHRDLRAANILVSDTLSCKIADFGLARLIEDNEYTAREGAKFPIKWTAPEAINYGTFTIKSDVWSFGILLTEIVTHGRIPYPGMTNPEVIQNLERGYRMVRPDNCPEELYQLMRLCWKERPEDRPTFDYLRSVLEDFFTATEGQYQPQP

O=c1cc(-c2ccccc2)oc2cc(O)c(O)c(O)c12 [JMY51] showed an IC50 [1] of about 3000 nM, an IC50 [2] of about 1000 nM and an IC50 [3] of about 2000 nM.
With O=C(Oc1cc(O)c2c(c1)OC(c1ccc(O)c(O)c1)C(O)C2)c1cc(O)c(O)c(O)c1 (stereo not drawn) [JMY65] the “inhibitory effect (in words)” value [4] was “inhibitory effects”, the “inhibitory effect (in words)” value [5] was “inhibitory effects” and the “inhibitory effect (in words)” value [2] was “inhibitory effects”. For the same compound, the IC50 [2] was about 100 nM, the “inhibitory activity (in words)” value [6] was “inhibitory activities” and the “inhibitory activity (in words)” value [7] was “inhibitory activities”. The “inhibitory effect (in words)” value [8] was “inhibitory effects”, the “inhibitory activity (in words)” value [9] was “inhibitory activities” and the IC50 ([9]; duplicate, read-out: IC50 (bioactivity in the kinome picture)) was about 500 nM.
In the case of O=c1c(O)c(-c2ccc(OC3OC(CO)C(O)[C@@H](O)C3O)c(O)c2)oc2cc(O)cc(O)c12 (stereo partly drawn) [JMY84], the IC50 [10] is reported as about 1000 nM, the “effect on kinase (in words)” value [11] is reported as “effects” and the “effect on kinase (in words)” value [1] is reported as “effects”. The “effect on kinase (in words)” value [12] was “effects”.
O=c1c(O)c(-c2ccc(O)c(O)c2)oc2cc(O)cc(O)c12 [Quercetin, quercetin, reference compound] was tested, and the IC50 [1] was about 1000 nM and the IC50 [13] was about 1000 nM.
